For assay [1], the system named is synaptic ribbons in inner hair cells. The experiment in a line: Ribbon synapse immunostaining and counting in cochlea, immediate treatment (Example 6). The format is in vivo, male Wistar rats. The settings on record: 2 hours and 8 days post-noise; for Number of pre-synaptic elements CtBP2 per IHC: 25 kHz and 32 kHz; for Number of pre-synaptic elements CtBP2 per IHC / Number of colocalized ribbons per IHC: vs traumatized vehicle group; for Number of colocalized ribbons per IHC: 25 kHz, paliroden 300 μg/ear, xaliproden 150 μg/ear; for Synapse loss in the inner hair cells: regions coding high frequency sounds. Here is the method:
(§1) At T+28DAYS, after DPOAE/ABR measures, 10 cochleae (all eight (8) left cochleae and two (2) right cochleae taken randomly) per group were rapidly sampled and immediately fixed by PFA perfusion (through the round and oval windows with PFA 4% after creating a small hole at the apex) in order to performed ribbon synapse immunostaining and analysis. Cochleae were fixed for 1 hour in a 4% PFA solution and decalcified in undiluted RDO (10 mL/cochlea for a minimum of 2 hours). The membranous and sensory spiral containing the organ of Corti are dissected out as a flat surface preparation under a dissecting microscope and immunolabelled with appropriate antibodies: • Vglut3 (Vglut3-Guinea Pig IgG; #135 204, Synaptic systems and Anti-Guinea Pig IgG (H+L), #A21450; Thermo Fisher Scientific 647 nm Far-Red) to stain inner hair cell bodies (vesicular glutamate transporter). • Homer (Homer-Rabbit IgG; #GTX103278; Genetex and Anti-Rabbit IgG (H+L) #A11008 Thermo Fisher Scientific 568 nm Red) to stain dendritic proteins of auditory nerve fibers connecting to IHC (post-synaptic). • CtBP2 (CtBP2-Mouse-IgG1; #612044; BD Transduction Laboratories and Anti-Mouse IgG1, #A21121, Thermo Fisher Scientific 488 Green) to stain the ribeye protein as pre-synaptic marker in IHC. • Phalloidin (Alexa Fluor™ Plus 405 Phalloidin; #A30104; Thermo Fisher Scientific 405 Blue).
Images were acquired on a confocal microscope and the slides were analyzed to i) evaluate by visual observation the presence of OHC (outer hair cells) and IHC (inner hair cells) (based on nuclei staining with CtBP2 and HC cell body staining with phalloidin) and ii) count the number of synaptic ribbons in selected inner hair cells in cochlea regions coding sound of selected frequency (16 kHz, 25 kHz and 32 kHz).
(§2) The number of pre- (CtBP2) and post-synaptic (Homer) labeled spots was counted using Imaris software in 3 dimensions for each image. Co-localization of pre- and post-synaptic elements was defined as a distance of maximum […] between CtBP2- and Homer-labeled spots, using an in-house Matlab program to calculate the distances between CtBP2 and Homer labels from the x, y, and z coordinates.

The test system is the same in assay [2]. The experiment in a line: Ribbon synapse immunostaining and counting in cochlea, delayed treatment (Example 7). Format: in vivo, male Wistar rats. The settings on record: for Number of pre-synaptic and post-synaptic elements (CtBP2 and Homer) per IHC / Number of colocalized ribbons per IHC: 25 kHz, vs traumatized vehicle and NaCl groups, 2 days and 9 days post-noise; for Number of colocalized ribbons per IHC: statistically significant for Paliroden; for Synapse loss in the inner hair cells (FIG. 8): regions coding high frequency sounds, printed 2 hours and 8 days post-noise. As to the method: as §1, with “At T+28 days,” for “At T+28DAYS,”, “10 cochlea” for “10 cochleae”
Images were acquired on a confocal microscope and the slides were analyzed to i) evaluate by visual observation the presence of OHC and IHC (based on nuclei staining with CtBP2 and HC cell body staining with phalloidin) and ii) count the number of synaptic ribbons in selected inner hair cells in cochlea regions coding sound of selected frequency (16 kHz, 25 kHz and 32 kHz).
as §2

Structures can show the parent of a compound that is named as a salt.

`FC(F)(F)c1cccc(C2=CCN(CCc3ccc(-c4ccccc4)cc3)CC2)c1` [paliroden (fumarate salt), 1-[2-(4-biphenylyl)ethyl]-4-(3-trifluoromethylphenyl)-1,2,3,6-tetrahydropyridine]: in assay [1], the “Number of pre-synaptic elements CtBP2 per IHC” value was “increase”, the “Number of colocalized ribbons per IHC” value is reported as “increase” and the “Synapse loss in the inner hair cells” value is on record as “tend to repair synapse loss”. Further, in assay [2], the “Number of pre-synaptic and post-synaptic elements (CtBP2 and Homer) per IHC” value is listed as “increase”; the “Number of colocalized ribbons per IHC” value is given as “increase”; the “Synapse loss in the inner hair cells (FIG. 8)” value is recorded as “significantly repair synapse loss”.
Turning to `FC(F)(F)c1cccc(C2=CCN(CCc3ccc4ccccc4c3)CC2)c1` [xaliproden (hydrochloride salt), 1-[2-(2-naphthyl)ethyl]-4-(3-trifluoromethylphenyl)-1,2,3,6-tetrahydropyridine], in assay [1], the “Number of pre-synaptic elements CtBP2 per IHC” value is “increase”, the “Number of colocalized ribbons per IHC” value is recorded as “increase” and the “Synapse loss in the inner hair cells” value is reported as “tend to repair synapse loss”. Further, in assay [2], the “Number of pre-synaptic and post-synaptic elements (CtBP2 and Homer) per IHC” value is recorded as “increase”; the “Number of colocalized ribbons per IHC” value is “increase”; the “Synapse loss in the inner hair cells (FIG. 8)” value is on record as “significantly repair synapse loss”.
